Experimental data taken from patent publication US7790781B2 (priority 2005, dated 2010).

How the values were obtained:
[1] = Water solubility of acidic compound at 20° C.
From the text: This object is achieved pursuant to the invention by a condensation-crosslinkable dental material having a composition containing at least one alkoxysilyl-functional and/or hydroxysilyl-functional polyether a), at least one catalyst b), and optionally water c), with the at least one catalyst b) being selected from the group consisting of bases, salts, and any combinations thereof.

[2] = pKa of acidic compound in water
From the text: If polyfunctional acids are used, it is sufficient for at least one of the pKa values, preferably the pKa1 of the polyfunctional acid used, to lie within the aforementioned ranges.

[3] = Polyether solubility of acidic compound (20° C.); settings: organic solvent or mixture

SMILES: Cc1ccc(S(=O)(=O)O)cc1 [p-toluenesulfonic acid]
- Water solubility [1]: about 750 g/l

SMILES: O=C1CC(=O)NC(=O)N1 [barbituric acid]
- pKa [2]: 4.01
- solubility ([1]; 20 °C, water): 142 mg/mL
- solubility [3]: ≤ 2000 µg/mL
